Source: patent US20060188913A1, “Methods and products for enhancing immune responses using imidazoquinoline compounds” (University of Iowa Research Foundation, priority 2001, published 2006)

Assays:
[1] = test system: human PBMC; assay: IP-10 secretion by human PBMC (ELISA); type: cell-based; details: 48 hours, ODN 0.2-3.0 μg/ml versus R-848 0.01-1.0 μg/ml, FIG. 6A
Method: This experiment investigated the induction of the Th1 cytokine IFN-gamma as well as the Th1-related chemokine IP-10 (IFN-gamma inducible protein). Unfractionated human PBMC from three donors were incubated for 48 hours in the presence of varying concentrations of R-848 (0.01-1.0 μg/ml), varying concentrations of CpG ODN 2006 (0.2-3.0 μg/ml), varying concentrations of negative control ODN 5177 (0.2-3.0 μg/ml), SEB (50 ng/ml), or media alone, and then the concentrations of IP-10 and IFN-gamma in the supernatant were measured by ELISA.
In FIG. 6B, the combined effects of R-848 and CpG ODN (e.g., #2006) on IP-10 secretion are shown. Human PBMCs from three different donors were incubated for 48 hours with the indicated concentrations of ODNs and R-848, either individually or together. Supernatants were harvested and IP-10 was measured by ELISA. The data represent mean cytokine amounts.

[2] = biological target: T1, hTLR9 (Homo sapiens, UniProt Q9NR96, H530R/Q688R); assay: Reconstitution of hTLR9 signaling in 293 fibroblasts (NF-kappa B luciferase, IL-8 ELISA); type: cell-based; details: 2006 2 μM, LPS 100 ng/ml, FIG. 10
T1 construct: 293-TLR9-Luc cells contain a genomic copy of the hTLR9 open reading frame and the NF-kappa B-luciferase cassette; expressed in transfected cells; host or cells: 293-TLR9-Luc (stably transfected human embryo kidney 293 cells)
T1 sequence (Q9NR96 26-1032 H530R/Q688R): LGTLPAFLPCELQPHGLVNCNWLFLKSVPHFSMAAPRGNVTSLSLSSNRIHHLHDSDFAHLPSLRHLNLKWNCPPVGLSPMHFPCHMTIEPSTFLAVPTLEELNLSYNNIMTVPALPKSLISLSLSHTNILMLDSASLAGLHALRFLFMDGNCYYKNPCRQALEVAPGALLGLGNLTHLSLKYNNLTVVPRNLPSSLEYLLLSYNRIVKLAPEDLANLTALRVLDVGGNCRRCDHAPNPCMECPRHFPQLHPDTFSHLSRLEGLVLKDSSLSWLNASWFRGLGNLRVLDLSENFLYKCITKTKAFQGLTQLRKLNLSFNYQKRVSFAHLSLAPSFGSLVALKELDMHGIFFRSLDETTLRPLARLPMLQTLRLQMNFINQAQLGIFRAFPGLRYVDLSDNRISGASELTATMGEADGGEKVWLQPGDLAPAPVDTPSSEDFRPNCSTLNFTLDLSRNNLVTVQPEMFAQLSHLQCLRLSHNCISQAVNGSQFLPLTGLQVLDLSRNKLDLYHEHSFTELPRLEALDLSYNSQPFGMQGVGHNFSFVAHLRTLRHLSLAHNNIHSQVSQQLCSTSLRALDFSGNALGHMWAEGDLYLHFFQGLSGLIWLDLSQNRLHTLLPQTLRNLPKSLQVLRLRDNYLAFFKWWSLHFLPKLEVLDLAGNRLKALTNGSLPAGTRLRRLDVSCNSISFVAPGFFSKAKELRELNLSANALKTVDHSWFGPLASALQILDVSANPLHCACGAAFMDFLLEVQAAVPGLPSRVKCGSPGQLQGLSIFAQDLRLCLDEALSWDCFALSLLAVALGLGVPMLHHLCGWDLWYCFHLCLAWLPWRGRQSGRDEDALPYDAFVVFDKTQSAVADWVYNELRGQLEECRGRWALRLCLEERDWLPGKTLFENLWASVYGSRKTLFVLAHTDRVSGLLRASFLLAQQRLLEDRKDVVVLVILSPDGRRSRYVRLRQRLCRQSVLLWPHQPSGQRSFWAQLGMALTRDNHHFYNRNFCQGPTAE
Excerpt: Methods for cloning murine and human TLR9 have been described in pending U.S. patent application Ser. No. 09/954,987, filed Sep. 17, 2001, and published PCT application PCT/US01/29229, the contents of which are incorporated by reference. Human TLR9 cDNA (SEQ ID NO:6, GenBank Accession No. AF245704) and murine TLR9 cDNA (SEQ ID NO:8, GenBank Accession No. AF348140) in pT-Adv vector (from Clontech) were individually cloned into the expression vector pcDNA3.1 (−) from Invitrogen using the EcoRi site. Utilizing a “gain of function” assay it was possible to reconstitute human TLR9 (hTLR9) and murine TLR9 (mTLR9) signaling in CpG-DNA non-responsive human 293 fibroblasts (ATCC, CRL-1573). The expression vectors mentioned above were transfected into 293 fibroblast cells using the calcium phosphate method. […]
Since NF-kappa B activation is central to the IL-1/TLR signal transduction pathway (Medzhitov R et al. (1998) Mol Cell 2:253-258 (1998); Muzio M et al. (1998) J Exp Med 187:2097-101), cells were transfected with hTLR9 or co-transfected with hTLR9 and an NF-kappa B-driven luciferase reporter construct. […] After stimulus with CpG-ODN (2006, 2 μM, […], SEQ ID NO:1), GpC-ODN (2006-GC, 2 μM, […], SEQ ID NO:10), LPS (100 ng/ml) or media, NF-kappa B activation by luciferase readout (8 h, FIG. 10A) or IL-8 production by ELISA (48 h, FIG. 10B) were monitored. […]

Substance: CpG ODN 2006
- IP-10 induction [1]: induced similar amounts of IP-10 compared to R-848
- response of cells expressing hTLR9 (NF-kappa B luciferase 8 h, IL-8 48 h) [2]: responded to CpG-DNA
